“And” between values parts separate entries of the source, which are not always exact repeats. Equal entries are not always repeated. Toxic doses and inconclusive results are not listed.
System: P388 leukemia ip, CD2F1 mice, survival T/C
Assay: NCI In Vivo Anticancer Drug Screen. Data for tumor model P388 Leukemia (intraperitoneal) in CD2F1 (CDF1) mice
Conditions: endpoint: median survival time, higher = longer survival
Summary of the method: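 Mice carrying the transplanted tumor received test compound or vehicle. Survival was recorded in each group, and the value is the treated-group measurement divided by that of the vehicle-treated control group.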

[1] = dose: 6.25 mg/kg/injection, schedule: Q01DX009 (ip), vehicle: saline with Tween-80
[2] = dose: 12.5 mg/kg/injection, schedule: Q01DX009 (ip), vehicle: saline with Tween-80
[3] = dose: 50.0 mg/kg/injection, schedule: Q01DX009 (ip), vehicle: saline
[4] = dose: 60.0 mg/kg/injection, schedule: Q01DX005 (ip), vehicle: saline
[5] = dose: 120.0 mg/kg/injection, schedule: Q01DX005 (ip), vehicle: saline
[6] = dose: 60.0 mg/kg/injection, schedule: Q01DX005 (ip), vehicle: saline with Tween-80
[7] = dose: 120.0 mg/kg/injection, schedule: Q01DX005 (ip), vehicle: saline with Tween-80
[8] = dose: 240.0 mg/kg/injection, schedule: Q01DX005 (ip), vehicle: saline with Tween-80
[9] = dose: 50.0 mg/kg/injection, schedule: Q01DX009 (ip), vehicle: Klucel (hydroxypropylcellulose) (HPC)
[10] = dose: 100.0 mg/kg/injection, schedule: Q01DX009 (ip), vehicle: Klucel (hydroxypropylcellulose) (HPC)
[11] = dose: 50.0 mg/kg/injection, schedule: Q01DX005 (ip), vehicle: saline with Tween-80
[12] = dose: 100.0 mg/kg/injection, schedule: Q01DX005 (ip), vehicle: saline with Tween-80
[13] = dose: 200.0 mg/kg/injection, schedule: Q01DX005 (ip), vehicle: saline with Tween-80
[14] = dose: 25.0 mg/kg/injection, schedule: Q01DX005 (ip), vehicle: saline with Tween-80
[15] = dose: 200.0 mg/kg/injection, schedule: Q01DX009 (ip), vehicle: Klucel (hydroxypropylcellulose) (HPC)

## CC(=O)O[C@H]1[C@@H](OC(C)=O)[C@]2(C)[C@H](CC[C@@]3(C)[C@H](c4ccoc4)C[C@H]4O[C@@]423)[C@@]2(C)C=CC(=O)OC(C)(C)[C@H]12
dose: 1.25 mg/kg/injection, schedule: Q04DX003 (ip), vehicle: Klucel (hydroxypropylcellulose) (HPC)
  T/C: 94 % of control
dose: 2.5 mg/kg/injection, schedule: Q04DX003 (ip), vehicle: Klucel (hydroxypropylcellulose) (HPC)
  T/C: 88 % of control
dose: 5.0 mg/kg/injection, schedule: Q04DX003 (ip), vehicle: Klucel (hydroxypropylcellulose) (HPC)
  T/C: 93 % of control
dose: 10.0 mg/kg/injection, schedule: Q04DX003 (ip), vehicle: Klucel (hydroxypropylcellulose) (HPC)
  T/C: 88 % of control

## Cc1nn(-c2ccc(S(=O)(=O)[O-])cc2)c([O-])c1N=[N+](C)c1ccc(-c2ccc(N=Nc3ccc4c(S(=O)(=O)[O-])cc(S(=O)(=O)[O-])c(N)c4c3[O-])c([O-])c2)cc1[O-].[Cu+2].[Cu+2].[Na+]
dose: 3.12 mg/kg/injection, schedule: Q01DX009 (ip), vehicle: saline with Tween-80
  T/C: 96 % of control
[1]
  T/C: 96 % of control
[2]
  T/C: 99 % of control and 86 % of control
dose: 12.5 mg/kg/injection, schedule: Q01DX009 (ip), vehicle: saline
  T/C: 97 % of control
[3]
  T/C: 96 % of control

## CN(C)CC(C(=O)/C=C/c1ccccc1)C(C)(C)C (stereo not drawn)
[4]
  T/C: 105 % of control
[5]
  T/C: 104 % of control

## COc1cc(-c2coc3cc(O)ccc3c2=O)c(O)c(OC)c1OC
dose: 100.0 mg/kg/injection, schedule: Q01DX001 (ip), vehicle: Klucel (hydroxypropylcellulose) (HPC)
  T/C: 101 % of control
dose: 200.0 mg/kg/injection, schedule: Q01DX001 (ip), vehicle: Klucel (hydroxypropylcellulose) (HPC)
  T/C: 101 % of control
dose: 400.0 mg/kg/injection, schedule: Q01DX001 (ip), vehicle: Klucel (hydroxypropylcellulose) (HPC)
  T/C: 102 % of control

## O=C(Nc1cccc(Cl)c1)Oc1cccnc1
[6]
  T/C: 99 % of control
[7]
  T/C: 88 % of control
[8]
  T/C: 89 % of control

## CCC1CC(C(=O)O)CC(=O)N1 (stereo not drawn)
dose: 17.5 mg/kg/injection, schedule: Q01DX005 (ip), vehicle: Klucel (hydroxypropylcellulose) (HPC)
  T/C: 92 % of control
dose: 35.0 mg/kg/injection, schedule: Q01DX005 (ip), vehicle: Klucel (hydroxypropylcellulose) (HPC)
  T/C: 90 % of control
dose: 70.0 mg/kg/injection, schedule: Q01DX005 (ip), vehicle: Klucel (hydroxypropylcellulose) (HPC)
  T/C: 97 % of control

## Cc1ccc(S(=O)(=O)N/N=C/C(=O)O)cc1
dose: 6.25 mg/kg/injection, schedule: Q01DX009 (ip), vehicle: Klucel (hydroxypropylcellulose) (HPC)
  T/C: 110 % of control and 119 % of control
dose: 6.25 mg/kg/injection, schedule: Q01DX009 (ip), vehicle: other
  T/C: 106 % of control
dose: 6.25 mg/kg/injection, schedule: Q01DX009 (ip), vehicle: water
  T/C: 108 % of control
dose: 12.5 mg/kg/injection, schedule: Q01DX009 (ip), vehicle: Klucel (hydroxypropylcellulose) (HPC)
  T/C: 114 % of control and 117 % of control and 122 % of control
[2]
  T/C: 121 % of control
[9]
  T/C: 152 % of control
[10]
  T/C: 104 % of control and 119 % of control and 117 % of control
dose: 100.0 mg/kg/injection, schedule: Q01DX009 (ip), vehicle: saline with Tween-80
  T/C: 107 % of control

## CCOC(=O)C[N+](C)(C)C(C#N)C(C)c1ccccc1 (stereo not drawn)
[4]
  T/C: 95 % of control
[5]
  T/C: 95 % of control

## CCOC(=O)c1cc2c(nc1C)-c1cc(Cl)ccc1OC2OCc1ccccc1 (stereo not drawn)
[6]
  T/C: 88 % of control
[7]
  T/C: 94 % of control
[8]
  T/C: 97 % of control

## CC1(C)Oc2cc3oc(=O)ccc3c3c2C2C1CCC(C)(O3)C2O (stereo not drawn)
dose: 50.0 mg/kg/injection, schedule: Q01DX005 (ip), vehicle: Klucel (hydroxypropylcellulose) (HPC)
  T/C: 102 % of control
dose: 100.0 mg/kg/injection, schedule: Q01DX005 (ip), vehicle: Klucel (hydroxypropylcellulose) (HPC)
  T/C: 96 % of control
dose: 200.0 mg/kg/injection, schedule: Q01DX005 (ip), vehicle: Klucel (hydroxypropylcellulose) (HPC)
  T/C: 105 % of control

## COc1ccc(C2CC(=O)N(CN3CCN(c4ccc(Cl)cc4)CC3)C(=O)C2)cc1
[1]
  T/C: 94 % of control
[2]
  T/C: 94 % of control
dose: 25.0 mg/kg/injection, schedule: Q01DX009 (ip), vehicle: saline with Tween-80
  T/C: 91 % of control
dose: 200.0 mg/kg/injection, schedule: Q01DX009 (ip), vehicle: saline with Tween-80
  T/C: 92 % of control

## O=C1CCC2CCc3ccccc3N12 (stereo not drawn)
dose: 100.0 mg/kg/injection, schedule: Q04DX002 (ip), vehicle: other
  T/C: 102 % of control
dose: 200.0 mg/kg/injection, schedule: Q04DX002 (ip), vehicle: other
  T/C: 96 % of control
dose: 400.0 mg/kg/injection, schedule: Q04DX002 (ip), vehicle: other
  T/C: 103 % of control

## CN(c1ccccc1)C1C2=C(CCCC2)OC(=O)C12SCCCS2 (stereo not drawn)
dose: 25.0 mg/kg/injection, schedule: Q04DX003 (ip), vehicle: saline with Tween-80
  T/C: 94 % of control
dose: 50.0 mg/kg/injection, schedule: Q04DX003 (ip), vehicle: saline with Tween-80
  T/C: 96 % of control
dose: 100.0 mg/kg/injection, schedule: Q04DX003 (ip), vehicle: saline with Tween-80
  T/C: 100 % of control and 98 % of control
dose: 132.0 mg/kg/injection, schedule: Q04DX003 (ip), vehicle: saline with Tween-80
  T/C: 98 % of control
dose: 200.0 mg/kg/injection, schedule: Q04DX003 (ip), vehicle: saline with Tween-80
  T/C: 106 % of control
dose: 300.0 mg/kg/injection, schedule: Q04DX003 (ip), vehicle: saline with Tween-80
  T/C: 119 % of control
dose: 400.0 mg/kg/injection, schedule: Q04DX003 (ip), vehicle: saline with Tween-80
  T/C: 105 % of control and 98 % of control

## CC(=O)C(=Cc1ccc(C)cc1)C(C)=O
[11]
  T/C: 99 % of control
[12]
  T/C: 103 % of control
[13]
  T/C: 110 % of control

## CCCCCCCC/C=C\CCCCCCCCN1CCOCC1
[3]
  T/C: 97 % of control
dose: 100.0 mg/kg/injection, schedule: Q01DX009 (ip), vehicle: saline
  T/C: 106 % of control

## COC(=O)c1cc(-c2ccc(C)cc2)c2c(=O)n(-c3ccccc3)[nH]c2n1
[6]
  T/C: 100 % of control
[7]
  T/C: 100 % of control
[8]
  T/C: 97 % of control

## O/N=C/c1ccc(Cl)cc1Cl
[14]
  T/C: 98 % of control
[11]
  T/C: 107 % of control
[12]
  T/C: 92 % of control
[13]
  T/C: 96 % of control

## COc1ccc(NC(=O)C2C(=O)N(c3ccc(OC)cc3)C(=O)/C2=N/NC(N)=S)cc1 (stereo not drawn)
dose: 12.5 mg/kg/injection, schedule: Q01DX005 (ip), vehicle: saline with Tween-80
  T/C: 101 % of control
[14]
  T/C: 100 % of control
[11]
  T/C: 100 % of control and 90 % of control

## CCCCCCCCCC(=O)C(=O)c1ccc(O)cc1O
[9]
  T/C: 94 % of control
[10]
  T/C: 93 % of control
[15]
  T/C: 94 % of control

## O=C1CCC(C2(O)c3ccccc3-c3ccccc32)C(=O)N1 (stereo not drawn)
[6]
  T/C: 95 % of control
[7]
  T/C: 96 % of control
[8]
  T/C: 95 % of control

## O=C(O)/C=C\C(=O)NCCCCCC(=O)O
[9]
  T/C: 102 % of control
[10]
  T/C: 103 % of control
[15]
  T/C: 105 % of control

## Cc1ccc(S(=O)(=O)N=S(=O)(CCCl)CCCl)cc1
dose: 12.5 mg/kg/injection, schedule: Q04DX003 (ip), vehicle: saline
  T/C: 98 % of control
dose: 25.0 mg/kg/injection, schedule: Q04DX003 (ip), vehicle: saline
  T/C: 98 % of control
dose: 50.0 mg/kg/injection, schedule: Q04DX003 (ip), vehicle: saline
  T/C: 96 % of control

## O=C(O)[C@@H]1CCC(c2ccccc2)=N1
dose: 50.0 mg/kg/injection, schedule: Q01DX005 (ip), vehicle: distilled water + alcohol
  T/C: 98 % of control
dose: 100.0 mg/kg/injection, schedule: Q01DX005 (ip), vehicle: distilled water + alcohol
  T/C: 98 % of control
dose: 200.0 mg/kg/injection, schedule: Q01DX005 (ip), vehicle: distilled water + alcohol
  T/C: 98 % of control

## CC(O)C(=O)N1Cc2cc3ccccc3nc2C1 (stereo not drawn)
dose: 4.0 mg/kg/injection, schedule: Q01DX009 (ip), vehicle: saline with Tween-80
  T/C: 94 % of control
dose: 8.0 mg/kg/injection, schedule: Q01DX009 (ip), vehicle: saline with Tween-80
  T/C: 89 % of control
dose: 16.0 mg/kg/injection, schedule: Q01DX009 (ip), vehicle: saline with Tween-80
  T/C: 92 % of control
dose: 32.0 mg/kg/injection, schedule: Q01DX009 (ip), vehicle: saline with Tween-80
  T/C: 90 % of control
dose: 64.0 mg/kg/injection, schedule: Q01DX009 (ip), vehicle: saline with Tween-80
  T/C: 91 % of control

## CCCN1C(=O)C2C3CCC(O3)C2C1=O (stereo not drawn)
[4]
  T/C: 100 % of control
[5]
  T/C: 109 % of control
dose: 240.0 mg/kg/injection, schedule: Q01DX005 (ip), vehicle: saline
  T/C: 98 % of control

Source: PubChem BioAssay AID330 (DTP/NCI, 2004)
